Data as given in patent US6887886B2, “Therapeutic compositions comprising excess enantiomer” (Pfizer Inc., priority 2000, dated 2005).
Where “and” joins values, the source holds several entries; their conditions need not be identical. Equal values may be shown once.

How the values were obtained:
[1] = tested on: canine coronary microvessels, epicardial coronary artery and aorta; assay: nitrite production (vascular NO release) in canine coronary microvessels, epicardial coronary artery and aorta; format: cell-based
canine myocardium = assay: cardiac oxygen consumption in canine myocardium in vitro; format: cell-based
[2] = tested on: hypoxic Langendorff mouse hearts; assay: hypoxic Langendorff mouse hearts perfused with enantiomer: myocardial glucose uptake and time to cessation of beating; conditions: hypoxic heart, 10^−7M solution
[3] = tested on: vascular smooth muscle cell; conditions: in vitro; cited from earlier work
[4] = in vivo; cited from earlier work
calcium channel = conditions: cited from earlier work
[5] = identical study, increasing concentrations

Structure (SMILES) | effect of NO synthase inhibitor L-NAME on the increase in nitrite production [1] | concentration-dependent increase in nitrite production, up to ([1]; enantiomer concentration of 10^−9M) | free concentration at which maximum NO release as measured by nitrite production was observed ([1]; free concentration) | effect of NO synthase inhibitor L-NAME on the reduction in oxygen consumption (canine myocardium) | reduction in oxygen consumption (canine myocardium; enantiomer concentration of 10^−5M) | increase in survival time [2] | reduction in myocardial glucose uptake [2] | time to cessation of beating (TCB) ([2]; untreated 9 minutes) | myocardial glucose uptake (MGU) ([2]; untreated hypoxic 0.57, normoxic 0.36) | PDGF-induced vascular smooth muscle cell migration [3] | nitrite production (in words) [1, 5] | reduction in oxygen consumption (in words) (canine myocardium; [5]) | dose in excess of which adverse effects arise (marked and sustained fall in blood pressure, reduced coronary blood flow) [4] | calcium channel-blocking activity of the racemate resides in (calcium channel)
CCOC(=O)C1=C(COCCN)NC(C)=C(C(=O)OC)[C@H]1c1ccccc1Cl (single isomer, unassigned) [R(+) enantiomer] | wholly or partly blocked | about 65 pmol/mg | 10^−9 M and 0.4 ng/ml | wholly or partly blocked | about 30% | three-fold | over 50% | about 33 minutes | 0.27 μg/min.mg | inhibit | – | – | – | –
CCOC(=O)C1=C(COCCN)NC(C)=C(C(=O)OC)[C@@H]1c1ccccc1Cl (single isomer, unassigned) [S(−) enantiomer] | – | – | – | not blocked | – | – | – | – | – | – | no evidence of nitrite production | a reduction in oxygen consumption was observed | > 0.5 mg/kg | largely, but not exclusively
